Results as given in US10844044B2 (Vanderbilt University, priority 2018, dated 2020).
Like-named read-outs stand apart in the source and are kept apart here.

How the values were obtained:
[1] = system: MV4:11 human cancer cell lines; test: Anti-proliferative activity, CellTiter-Glo viability assay, 7 day protocol; type: cell-based; conditions: Homo sapiens, MV4-11, 168 h, MV4:11 cells, 7 day incubation, read-out: GI50 on cellular proliferation of MV4:11 human cancer cell lines
Procedure, shortened: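 Luminescent CellTiter-Glo readout after 7-day compound exposure of MV4:11 cells plated at 3600 cells/ml (final DMSO 0.1%). GI50 derived from three biological × three technical replicates, reported as mean ± S.E.M.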

WDR5 = WDR5 (Homo sapiens (Human), UniProt P61964); test: TR-FRET binding assay (displacement of 10mer-Thr-FAM probe from WDR5)
[2] = read-out: Ki for Inhibition of WDR5 by TR-FRET assay, TR-FRET, 10mer-Thr-FAM probe, WDR5-His tag 2 nM, pH 7.0
[3] = read-out: Ki for Inhibition of WDR5 by TR-FRET assay

Row | Ki (WDR5) | Structure (SMILES) | GI50 [1] | Ki (WDR5; [2]) | Ki (WDR5; [3])
1 |  | Cc1cc([C@@H](NC(=O)c2cc(CN3CCCC3=N)cc(-c3ccc(F)cc3C(F)(F)F)c2)C2CC2)ccc1F [Example 335, (S)—N-(Cyclopropyl(4-fluoro-3-methylphenyl)methyl)-4′-fluoro-5-((2-iminopyrrolidin-1-yl)methyl)-2′-(trifluoromethyl)-[1,1′-biphenyl]-3-carboxamide] | < 100 nM | < 0.1 nM | 
2 |  | Cc1cc(CNC(=O)c2cc(Cn3ccn(C)c3=N)cc(-c3cccnc3C)c2)ncn1 [Example 38, 3-((2-Imino-3-methyl-2,3-dihydro-1H-imidazol-1-yl)methyl)-5-(2-methylpyridin-3-yl)-N-((6-methylpyrimidin-4-yl)methyl)benzamide] | 6000 nM | 3.7 nM | 
3 | < 0.1 nM | CCn1cc(-c2cc(CN3CCN(C)C3=N)cc(C(=O)N[C@H](c3ccc(F)c(F)c3)C3CC3)c2)c(C(F)(F)F)n1 [Example 213, (S)—N-(Cyclopropyl(3,4-difluorophenyl)methyl)-3-(1-ethyl-3-(trifluoromethyl)-1H-pyrazol-4-yl)-5-((2-imino-3-methylimidazolidin-1-yl)methyl)benzamide] | < 100 nM |  | 
4 |  | CCOc1c(C(=O)N[C@H](c2ccc(F)c(C)c2)C2CC2)cc(Cn2ccccc2=N)cc1-c1cn(C)nc1C(F)(F)F [Example 347, (S)—N-(Cyclopropyl(4-fluoro-3-methylphenyl)methyl)-2-ethoxy-5-((2-iminopyridin-(2H)-yl)methyl)-3-(1-methyl-3-(trifluoromethyl)-1H-pyrazol-4-yl)benzamide] | < 100 nM | < 0.1 nM | 
5 |  | CCn1cc(-c2cc(Cn3ccoc3=N)cc(C(=O)N[C@H](c3ccc(Cl)c(Cl)c3)C3CC3)c2)c(C(F)(F)F)n1 [Example 280, (S)—N-(Cyclopropyl(3,4-dichlorophenyl)methyl)-3-(1-ethyl-3-(trifluoromethyl)-1H-pyrazol-4-yl)-5-((2-iminooxazol-3(2H)-yl)methyl)benzamide] | < 100 nM | < 0.1 nM | 
6 |  | Cc1cc([C@@H](NC(=O)c2cc(Cn3ccn(C)c3=N)cc(-c3cccnc3C(F)(F)F)c2)C2CC2)ccc1F [Example 60, (S)—N-(cyclopropyl(4-fluoro-3-methylphenyl)methyl)-3-((2-imino-3-methyl-2,3-dihydro-1H-imidazol-1-yl)methyl)-5-(2-(trifluoromethyl)pyridin-3-yl)benzamide] | < 100 nM | < 0.1 nM | 
7 |  | Cc1cc([C@@H](NC(=O)c2cc(Cn3ccn(C)c3=N)cc(C3CCC3)c2)C2CC2)ccc1F [Example 166, (S)-3-Cyclobutyl-N-(cyclopropyl(4-fluoro-3-methylphenyl)methyl)-5-((2-imino-3-methyl-2,3-dihydro-1H-imidazol-1-yl)methyl)benzamide] | 360 nM | < 0.1 nM | 
8 |  | COc1cc(CNC(=O)c2cc(CN3CCSC3=N)cc(-c3ccc(F)cc3C)c2)cc(OC)c1 [Example 308, N-(3,5-Dimethoxybenzyl)-4′-fluoro-5-((2-iminothiazolidin-3-yl)methyl)-2′-methyl-[1,1′-biphenyl]-3-carboxamide] | 630 nM |  | 0.45 nM
9 |  | COc1cc(OC)cc(C(NC(=O)c2cc(Cn3ccoc3=N)cc(-c3ccc(F)cc3OC(F)F)c2)C2CC2)c1 (stereo not drawn) [Example 236, N-(Cyclopropyl(3,5-dimethoxyphenyl)methyl)-2′-(difluoromethoxy)-4′-fluoro-5-((2-iminooxazol-3(2H)-yl)methyl)-[1,1′-biphenyl]-3-carboxamide] | 450 nM | 0.16 nM | 
10 |  | CCn1cc(-c2cc(Cn3ccsc3=N)cc(C(=O)N[C@H](c3ccc(Cl)c(F)c3)C3CC3)c2)c(C(F)(F)F)n1 [Example 324, (S)—N-((4-Chloro-3-fluorphenyl)(cyclopropyl)methyl)-3-(1-ethyl-3-(trifluoromethyl)-1H-pyrazol-4-yl)-5-((2-iminothiazol-3(2H)-yl)methyl)benzamide] | < 100 nM |  | < 0.1 nM
11 |  | Cc1cn(Cc2cc(C(=O)N[C@H](c3ccc(F)c(C)c3)C3CC3)cc(-c3cccnc3C(F)(F)F)c2)c(=N)o1 [Example 250, (S)—N-(Cyclopropyl(4-fluoro-3-methylphenyl)methyl)-3-((2-imino-5-methyloxazol-3(2H)-yl)methyl)-5-(2-(trifluoromethyl)pyridin-3-yl)benzamide] | 570 nM | 0.4 nM | 
12 |  | CCn1cc(-c2cc(Cn3ccoc3=N)cc(C(=O)N[C@H](c3ccc(F)c(Cl)c3)C3CC3)c2)c(C(F)(F)F)n1 [Example 298, (S)—N-((3-Chloro-4-fluorophenyl)(cyclopropyl)methyl)-3-(1-ethyl-3-(trifluoromethyl)-1H-pyrazol-4-yl)-5-((2-iminooxazol-3(2H)-yl)methyl)benzamide] | < 100 nM | < 0.1 nM | 
13 |  | Cc1cc([C@@H](NC(=O)c2cc(Cn3ccn(C4CC4)c3=N)cc(-c3cn(C(C)C)nc3C(F)(F)F)c2)C2CC2)ccc1F [Example 194, (S)—N-(Cyclopropyl(4-fluoro-3-methylphenyl)methyl)-3-((3-cyclopropyl-2-imino-2,3-dihydro-1H-imidazol-1-yl)methyl)-5-(1-isopropyl-3-(trifluoromethyl)-1H-pyrazol-4-yl)benzamide] | < 100 nM | < 0.1 nM | 
14 |  | Cc1cc([C@@H](NC(=O)c2cc(Cn3ccoc3=N)cc(-c3cn(C)nc3C(F)(F)F)c2)C2CC2)ncc1F [Example 299, (S)—N-(Cyclopropyl(5-fluoro-4-methylpyridin-2-yl)methyl)-3-((2-iminooxazol-3(2H)-yl)methyl)-5-(1-methyl-3-(trifluoromethyl)-1H-pyrazol-4-yl)benzamide] | < 100 nM | < 0.1 nM | 
15 |  | Cc1cc([C@@H](NC(=O)c2cc(Cn3ccn(C)c3=N)cc(N3CCOC[C@H]3C)c2)C2CC2)ccc1F [Example 227, N—((S)-cyclopropyl(4-fluoro-3-methylphenyl)methyl)-3-((2-imino-3-methyl-2,3-dihydro-1H-imidazol-1-yl)methyl)-5-((R)-3-methylmorpholino)benzamide] | 940 nM |  | 2.1 nM
16 |  | CCn1cc(-c2cc(CN3CCOC3=N)cc(C(=O)NCc3ccc(F)c(C)c3)c2)c(C(F)(F)F)n1 [Example 295, 3-(1-Ethyl-3-(trifluoromethyl)-1H-pyrazol-4-yl)-N-(4-fluoro-3-methylbenzyl)-5-((2-iminooxazolidin-3-yl)methyl)benzamide] | < 100 nM |  | < 0.1 nM
17 |  | Cc1cc([C@@H](NC(=O)c2cc(Cn3ccsc3=N)cc(-c3cn(C)nc3C(F)(F)F)c2)C2CC2)ncc1F [Example 325, (S)—N-(Cyclopropyl(5-fluoro-4-methylpyridin-2-yl)methyl)-3-((2-iminothiazol-3(2H)-yl)methyl)-5-(1-methyl-3-(trifluoromethyl)-1H-pyrazol-4-yl)benzamide] | < 100 nM | < 0.1 nM | 
18 |  | Cc1cc([C@@H](NC(=O)c2cc(Cn3ccn(C)c3=N)cc(-c3ccccc3C)c2)C2CC2)ccc1F [Example 201, (S)—N-(Cyclopropyl(4-fluoro-3-methylphenyl)methyl)-5-((2-imino-3-methyl-2,3-dihydro-1H-imidazol-1-yl)methyl)-2′-methyl-[1,1′-biphenyl]-3-carboxamide] | 140 nM | < 0.1 nM | 
